Values quoted from earlier work, collected in patent US20190008784A1, “NOVEL SECNIDAZOLE SOFT GELATIN CAPSULE FORMULATIONS AND USES THEREOF” (SYMBIOMIX THERAPEUTICS, LLC, priority 2017, published 2019).

What was measured:
bacterial vaginosis [1] = conditions: 500 mg ovule formulation compared with 37.5 mg gel
bacterial vaginosis [2] = conditions: intravaginal 750 mg ovule compared with 500 mg ovule

SMILES: Cc1ncc([N+](=O)[O-])n1CCO [metronidazole]
- Effectiveness in the treatment of bacterial vaginosis (bacterial vaginosis [1]): significantly more effective
- Cure rates (bacterial vaginosis [2]): higher cure rates
